Results reported in PubChem BioAssay AID2060622 (Molecular Pharmacology Branch, DTP, NCI, 2025).

System: 242566-281-R-J2-PDC complex spheroid viability
Assay: Anticancer human tumor 242566-281-R-J2-PDC patient-derived pancreatic carcinoma cell line growth inhibition [CLK]
Details: for IC50: curve of first compound; for viability, T/C: stronger effect = lower value
In short: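 Patient-derived tumor cells grown as complex spheroids with HUVEC endothelial cells and mesenchymal stem cells, treated with drug combinations. Concentrations descend in half-log steps from near clinical Cmax, or from 10 microM if Cmax unknown.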

[1] = second compound 0.0316 µM, first compound 0.0316 µM
[2] = second compound 0.0316 µM, first compound 0.1 µM
[3] = second compound 0.0316 µM, first compound 0.316 µM
[4] = second compound 0.0316 µM, first compound 1 µM
[5] = second compound 0.0316 µM, first compound 3.16 µM
[6] = second compound 0.0316 µM, first compound 10 µM
[7] = second compound 0.1 µM, first compound 0.0316 µM
[8] = second compound 0.1 µM, first compound 0.1 µM
[9] = second compound 0.1 µM, first compound 0.316 µM
[10] = second compound 0.1 µM, first compound 1 µM
[11] = second compound 0.1 µM, first compound 3.16 µM
[12] = second compound 0.1 µM, first compound 10 µM
[13] = second compound 0.316 µM, first compound 0.0316 µM
[14] = second compound 0.316 µM, first compound 0.1 µM
[15] = second compound 0.316 µM, first compound 0.316 µM
[16] = second compound 0.316 µM, first compound 1 µM
[17] = second compound 0.316 µM, first compound 3.16 µM
[18] = second compound 0.316 µM, first compound 10 µM
[19] = second compound 1 µM, first compound 0.0316 µM
[20] = second compound 1 µM, first compound 0.1 µM
[21] = second compound 1 µM, first compound 0.316 µM
[22] = second compound 1 µM, first compound 1 µM
[23] = second compound 1 µM, first compound 3.16 µM
[24] = second compound 1 µM, first compound 10 µM
[25] = second compound 3.16 µM, first compound 0.0316 µM
[26] = second compound 3.16 µM, first compound 0.1 µM
[27] = second compound 3.16 µM, first compound 0.316 µM
[28] = second compound 3.16 µM, first compound 1 µM
[29] = second compound 3.16 µM, first compound 3.16 µM
[30] = second compound 3.16 µM, first compound 10 µM
[31] = second compound 10 µM, first compound 0.0316 µM
[32] = second compound 10 µM, first compound 0.1 µM
[33] = second compound 10 µM, first compound 0.316 µM
[34] = second compound 10 µM, first compound 1 µM
[35] = second compound 10 µM, first compound 3.16 µM
[36] = second compound 10 µM, first compound 10 µM
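Also: spheroids exposed to compounds for 7 days before readout.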
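For viability, T/C in this document: 100% = DMSO vehicle control wells.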

In the case of `CC(=O)O[C@H]1C(=O)[C@@]2(C)[C@H]([C@H](OC(=O)c3ccccc3)[C@]3(O)C[C@H](OC(=O)[C@H](O)[C@@H](NC(=O)c4ccccc4)c4ccccc4)C(C)=C1C3(C)C)[C@]1(OC(C)=O)CO[C@@H]1C[C@@H]2O` + CNC(=O)c1ccc(Nc2nc(OC3CCCC3)c3c(-c4ccc5nc(C)oc5c4)c[nH]c3n2)c(OC)c1, the IC50 (second compound 0.0316 µM) is reported as under 31.6 nM, the IC50 (second compound 0.1 µM) is reported as over 10000 nM and the IC50 (second compound 0.316 µM) is reported as over 10000 nM. The IC50 (second compound 1 µM) was over 10000 nM, the IC50 (second compound 3.16 µM) was under 31.6 nM and the IC50 (second compound 10 µM) was under 31.6 nM. It also gave a viability, T/C [1] of 61%, a viability, T/C [2] of 47.7% and a viability, T/C [3] of 42%. For the same compound, the viability, T/C [4] was 41.7%, the viability, T/C [5] was 46% and the viability, T/C [6] was 72.3%. It also gave a viability, T/C [7] of 84.7%, a viability, T/C [8] of 66.2% and a viability, T/C [9] of 53.2%. It also gave a viability, T/C [10] of 61.9%, a viability, T/C [11] of 70.7% and a viability, T/C [12] of 108%. The viability, T/C [13] was 91.7%, the viability, T/C [14] was 95% and the viability, T/C [15] was 86.2%. The viability, T/C [16] was 92%, the viability, T/C [17] was 115% and the viability, T/C [18] was 94.6%. The viability, T/C [19] was 62.3%, the viability, T/C [20] was 56.6% and the viability, T/C [21] was 52.2%. It also gave a viability, T/C [22] of 51.6%, a viability, T/C [23] of 50.7% and a viability, T/C [24] of 56.2%. It also gave a viability, T/C [25] of 51%, a viability, T/C [26] of 40.9% and a viability, T/C [27] of 43.1%. For the same compound, the viability, T/C [28] was 45.2%, the viability, T/C [29] was 46.3% and the viability, T/C [30] was 43%. The viability, T/C [31] was 43%, the viability, T/C [32] was 36.4% and the viability, T/C [33] was 43.7%. It also gave a viability, T/C [34] of 46.2%, a viability, T/C [35] of 43.4% and a viability, T/C [36] of 44.8%.

With `CCc1c2c(nc3ccc(O)cc13)-c1cc3c(c(=O)n1C2)COC(=O)[C@]3(O)CC` + CNC(=O)c1ccc(Nc2nc(OC3CCCC3)c3c(-c4ccc5nc(C)oc5c4)c[nH]c3n2)c(OC)c1 the IC50 (second compound 0.0316 µM) was 19.6 nM, the IC50 (second compound 0.1 µM) was 12.6 nM and the IC50 (second compound 0.316 µM) was 5.05 nM. The IC50 (second compound 1 µM) was under 3.16 nM, the IC50 (second compound 3.16 µM) was under 3.16 nM and the IC50 (second compound 10 µM) was under 3.16 nM. It also gave a viability, T/C (second compound 0.0316 µM, first compound 0.00316 µM) of 93.6%, a viability, T/C (second compound 0.0316 µM, first compound 0.01 µM) of 70.8% and a viability, T/C [1] of 35.2%. It also gave a viability, T/C [2] of 12.7%, a viability, T/C [3] of 5.19% and a viability, T/C [4] of 1.82%. It also gave a viability, T/C (second compound 0.1 µM, first compound 0.00316 µM) of 76%, a viability, T/C (second compound 0.1 µM, first compound 0.01 µM) of 58.4% and a viability, T/C [7] of 17.6%. For the same compound, the viability, T/C [8] was 8.93%, the viability, T/C [9] was 5.07% and the viability, T/C [10] was 2.28%. The viability, T/C (second compound 0.316 µM, first compound 0.00316 µM) was 69.5%, the viability, T/C (second compound 0.316 µM, first compound 0.01 µM) was 21.2% and the viability, T/C [13] was 8.24%. The viability, T/C [14] was 5.13%, the viability, T/C [15] was 3.51% and the viability, T/C [16] was 3.02%. The viability, T/C (second compound 1 µM, first compound 0.00316 µM) was 29.4%, the viability, T/C (second compound 1 µM, first compound 0.01 µM) was 9.85% and the viability, T/C [19] was 4.94%. For the same compound, the viability, T/C [20] was 3.94%, the viability, T/C [21] was 3.17% and the viability, T/C [22] was 2.15%. It also gave a viability, T/C (second compound 3.16 µM, first compound 0.00316 µM) of 23%, a viability, T/C (second compound 3.16 µM, first compound 0.01 µM) of 7.75% and a viability, T/C [25] of 4.05%. For the same compound, the viability, T/C [26] was 3.95%, the viability, T/C [27] was 3.63% and the viability, T/C [28] was 1.54%. The viability, T/C (second compound 10 µM, first compound 0.00316 µM) was 18.5%, the viability, T/C (second compound 10 µM, first compound 0.01 µM) was 7.14% and the viability, T/C [31] was 4.31%. The viability, T/C [32] was 3.19%, the viability, T/C [33] was 3.1% and the viability, T/C [34] was 2.01%.

With `COc1cccc2c1C(=O)c1c(O)c3c(c(O)c1C2=O)CC(O)(C(=O)CO)CC3OC1CC(N)C(O)C(C)O1` (stereo unspecified) + CNC(=O)c1ccc(Nc2nc(OC3CCCC3)c3c(-c4ccc5nc(C)oc5c4)c[nH]c3n2)c(OC)c1 the IC50 (second compound 0.0316 µM) was 185 nM, the IC50 (second compound 0.1 µM) was 159 nM and the IC50 (second compound 0.316 µM) was 102 nM. The IC50 (second compound 1 µM) was 31.7 nM, the IC50 (second compound 3.16 µM) was under 31.6 nM and the IC50 (second compound 10 µM) was under 31.6 nM. For the same compound, the viability, T/C [1] was 86.6%, the viability, T/C [2] was 64.8% and the viability, T/C [3] was 37%. The viability, T/C [4] was 16.4%, the viability, T/C [5] was 6.4% and the viability, T/C [6] was 1.62%. The viability, T/C [7] was 86.8%, the viability, T/C [8] was 64.7% and the viability, T/C [9] was 27.8%. The viability, T/C [10] was 16%, the viability, T/C [11] was 6.66% and the viability, T/C [12] was 1.48%. The viability, T/C [13] was 80.4%, the viability, T/C [14] was 51.2% and the viability, T/C [15] was 15.9%. For the same compound, the viability, T/C [16] was 10.4%, the viability, T/C [17] was 1.13% and the viability, T/C [18] was 1.75%. For the same compound, the viability, T/C [19] was 50.1%, the viability, T/C [20] was 20.2% and the viability, T/C [21] was 6.31%. It also gave a viability, T/C [22] of 2.71%, a viability, T/C [23] of 1.6% and a viability, T/C [24] of 1.45%. It also gave a viability, T/C [25] of 37.1%, a viability, T/C [26] of 11.2% and a viability, T/C [27] of 3.77%. For the same compound, the viability, T/C [28] was 1.91%, the viability, T/C [29] was 1.71% and the viability, T/C [30] was 1.85%. The viability, T/C [31] was 31.5%, the viability, T/C [32] was 10.5% and the viability, T/C [33] was 3.98%. For the same compound, the viability, T/C [34] was 1.91%, the viability, T/C [35] was 1.68% and the viability, T/C [36] was 2.07%.
